Data as given in patent US5292498A, “Method of treating lung disease with uridine triphosphates” (The University of North Carolina At Chapel Hill, priority 1991, dated 1994).

Columns and labels:
[1] = system: normal human nasal epithelial cells; experiment: Intracellular calcium [Ca^2+ ]i in single normal human nasal epithelial cells (Fura-2); assay type: cell-based; conditions: concentration-effect curves, FIG. 3
Description: (§1) Freshly excised human nasal epithelium from normal or cystic fibrosis subjects was grown in primary culture in F-12, hormone-supplemented medium in accordance with known procedures. See R. Wu et al., Am. Rev. Respir. Dis. 132, 311-320 (1985). For [Ca^2+ ]i measurements, cultures were grown on non-fluorescent vitrogen substrates on glass coverslips. Cultures for electrophysiologic studies were grown to confluence on permeable collagen matrix supports (CMS), allowing addition of agonists to the basolateral or apical surface of the epithelial sheet.
(§2) Primary human nasal epithelial cells grown to confluence on vitrogen coated coverslips were loaded with a final concentration of 3 μM Fura-2/AM at 37° C. for 30 minutes. The cells were then washed in NaCl Ringer and mounted in a chamber for measurements of fluorescence. To reduce the rate of leakage of Fura-2 from the cell into the extracellular space and avoid time-dependent compartmentalization of the probe, all measurements of [Ca^2+ ]i were performed at 25° C. At this temperature,no vesicular bright spots indicative of compartmentalization of the probe were observed.
Measurements of [Ca^2+ ]i in single human nasal epithelial cells were obtained with a modular microspectrofluorimeter (SPEX Industries, Inc., Edison, N.J.) attached to a Zeiss Axiovert IM 35 microscope. The system was equipped with a xenon lamp, beam splitter, two monochromators and a rotating chopper mirror that permitted excitation of cell fluorescence at alternating wavelengths of 340 and 380 nm (emission ≥450 nm). The fluorescent signal from a single cell was measured with a photometer equipped with a pinhole (spot diameter of 3-5 μm) that excluded signals from adjacent cells.
After agonist was added, the fluorescent signal was quenched by a NaCl ringer solution containing 1.5×10^-4 M digitonin and 10^-3 M MnCl2. The remaining signal at each excitation wavelength, equivalent to the background fluorescence in non loaded cells, was subtracted from data from Fura-2/AM loaded cells before the ratio (340 nm/380 nm) was taken. The 340 nm/380 nm ratio was converted to an actual [Ca^2+ ]i measurement by using the external calibration standards and the formula derived by G. Grynkiewicz et al., J. Biol. Chem. 260, 3440-3450 (1985), used with dual wavelength measurements: [Ca^2+ ]i =K [(Rx --Ro)/(Rs --Rx)], with Ro and Rs representing the ratios at 0 Ca^2+ and saturating Ca^2+, respectively. Rx represents the experimental ratio.
To investigate whether changes in [Ca^2+ ]i might be related to regulation of ion transport, receptor characterization was performed by measuring changes in [Ca^2+ ]i in response to a number of nucleotide drugs. Concentration-effect curves for agonists active at P2x, P2y subtype or UTP sensitive receptors and other purine or pyrimidine receptor agonists were generated, measuring mean change in [Ca^2+ ]i in response to agonist concentration. Data are shown in FIG. 3, which gives log concentration-effect relationships of purinergic and pyrimidinergic compounds on [Ca^2+ ]i (mean change in [Ca^2+ ]i over basal levels).

[2] = system: normal human nasal epithelium; experiment: Bioelectric studies (short circuit current, Isc) of normal human nasal epithelium in Ussing chambers; assay type: cell-based; conditions: for rank order of potency for Cl^- secretion: FIG. 2; for rank order of potency for increase in Isc / character of concentration-effect curve including 10^-3 M / character of log concentration-effect curve / change in ion transport rates: basolateral surface; for rank order of potency for increase in Isc / change in ion transport rates: FIG. 1; for increase in Isc: dipyridamole 10^-6 M; for character of concentration-effect curve including 10^-3 M: 10^-3 M drug considered; for character of log concentration-effect curve: 10^-7 to 10^-4 M; for change in ion transport rates: compared to ATP curve
Description: as §1
(§3) Confluent monolayers of primary human nasal epithelium were mounted in modified Ussing chambers in accordance with known procedures. See, e.g., R. Boucher et al., J. Physiol. (Lond.) 405, 77-103 (1988); M. Knowles et al., Science 221, 1067-1070 (1983). The studies described below were performed under short circuit current conditions at 37° C., and in some studies, amiloride was added to the apical bath (10^-4 M) to block transepithelial sodium transport. Changes in transepithelial potential difference (Vt), resistance (Rt) and short circuit current (Isc) were measured in response to addition of various nucleotides. Each cultured preparation was exposed to only one concentration of an agonist on either the basolateral or apical surface to avoid the tachyphylaxis observed in preliminary cumulative dose response studies. To construct concentration-effect relationships of responses to nucleotides, it was assumed that the same maximum response to an agonist could be induced from each tissue culture preparation from the same individual.
The effects of extracellular ATP on normal human nasal epithelium were investigated employing bioelectric measurements of ion transport activity when the nucleotide was applied to either the apical or basolateral membrane. […] In general, the change in Isc induced by application of ATP to the apical or the basolateral side returned to baseline or below within 5 minutes after addition of agonist. […] Apical pretreatment with amiloride (10^-4 M) removes active Na^+ absorption as a component of the Isc so that the residual Isc reflects a Cl^- secretory current (R. Boucher et al., J. Clin. Invest. 78, 1245-1252 (1986); N. Willumsen et al., Am. J. Physiol. 256, C1033-C1044 (1989)).
A concentration-effect relationship was found when ATP was applied to normal human nasal epithelium under basal conditions (data not shown). Comparisons were made between responses of tissues from different donors based on the peak change in Isc following ATP application. The curve describes the mean peak change in Isc in response to log increasing concentrations of ATP applied to the apical or basolateral surface.
Concentration-effect relationships were also found for ATP applied to the apical or basolateral membrane of amiloride-pretreated tissues (data not shown). Again, the nucleotide's effect on ion transport was examined as the mean peak change in Isc after ATP application.
(§4) The purinergic receptor subtype(s) linked to regulation of ion transport of human nasal epithelium were characterized by obtaining concentration-effect relationships for a variety of purine and pyrimidine agonists in preparations derived from normal and CF patients. We characterized receptor subtype(s) on the […] surface by measuring nucleotide effect on basal Na^+ transport rates. Because therapies designed to induce Cl^- secretion might best be delivered by the aerosol route, receptor subtype characterization on the apical barrier was performed in the presence of amiloride. The effect of extracellular nucleotides on ion transport is reported as the percent change in Isc from control values when applied to the basolateral or apical surface of the culture. Basal pre-agonist currents were similar for tissues in each concentration group.

[3] = 25° C.; read-out: Kd (effective dissociation constant for Fura-2); cited from earlier work
[4] = system: CF human nasal epithelium; experiment: Bioelectric studies (Isc) of cystic fibrosis (CF) human nasal epithelium; assay type: cell-based; conditions: for Isc response tracing: apical, amiloride-pretreated, FIG. 4C
Description: as §1, §3, §4
Availability of Cystic Fibrosis (CF) tissues is limited, and our investigation of effects of nucleotides was restricted to examining regulation of Cl^- secretion rates and [Ca^2+ ]i levels by ATP and UTP.

[5] = system: CF nasal epithelial cells; experiment: Intracellular calcium [Ca^2+ ]i in single CF nasal epithelial cells (Fura-2); assay type: cell-based, human; conditions: FIG. 6
Description: as §1, with “132, 311-320 (1985).” left out
as §2, with “C.” for “C. At this temperature,no vesicular bright spots indicative of compartmentalization of the probe were observed.”
Measurements of [Ca^2+ ]i in single human nasal epithelial cells were obtained with a modular microspectrofluorimeter (SPEX Industries, Inc., Edison, N.J.) attached to a Zeiss Axiovert IM 35 microscope. […] The fluorescent signal from a single cell was measured with a photometer equipped with a pinhole (spot diameter of 3-5 μm) that excluded signals from adjacent cells. […]

[6] = apical surface, amiloride-pretreated

| Compound | effectiveness for raising [Ca^2+ ]i [1] | rank order of potency for Cl^- secretion [2, 6] | rank order of potency for increase in Isc [2] | character of concentration-effect curve including 10^-3 M [2] | character of log concentration-effect curve [2] | also measured |
| --- | --- | --- | --- | --- | --- | --- |
| O=c1[nH]c(=O)n([C@@H]2O[C@H](COP(=O)(O)OP(=O)(O)OP(=O)(O)O)[C@@H](O)[C@H]2O)cc1Br [5BrUTP, 5-bromo-uridine 5'-triphosphate] | essentially as effective as UTP |  |  |  |  |  |
| Nc1ncnc2c1ncn2[C@@H]1O[C@H](COP(=O)(O)OP(=O)(O)O)[C@@H](O)[C@H]1O [ADP] |  | ATP≥UTP>ATPγS>ADP>2MeSATP>ADPβS | 2MeSATP>UTP≥ATP>ATPγS>ADP>ADPβS |  |  |  |
| Nc1ncnc2c1ncn2[C@@H]1O[C@H](CO)[C@@H](O)[C@H]1O [adenosine] |  |  |  |  |  | increase in Isc ([2]; 10^-4 M, apical surface, amiloride-pretreated, n=8): 10±6%; increase in Isc ([2]; 10^-5 M or 10^-4 M, basolateral barrier, n=8 each dose): less than 5%; increase in Isc ([2]; 10^-5 M, apical surface, amiloride-pretreated, n=7): 10±7%; change in Isc compared to ATP ([2]; following preincubation with dipyridamole 10^-6 M): only small and variable changes in Isc compared to ATP |
| Nc1ncnc2c1ncn2[C@@H]1O[C@H](COP(=O)(O)OP(O)(O)=S)[C@@H](O)[C@H]1O [ADPβS] | little effect | ATP≥UTP>ATPγS>ADP>2MeSATP>ADPβS | 2MeSATP>UTP≥ATP>ATPγS>ADP>ADPβS | biphasic in character | sigmoidal character |  |
| Nc1ncnc2c1ncn2[C@@H]1O[C@H](COP(=O)(O)OP(=O)(O)OP(O)(O)=S)[C@@H](O)[C@H]1O [ATPγS] | most effective agonists | ATP≥UTP>ATPγS>ADP>2MeSATP>ADPβS | 2MeSATP>UTP≥ATP>ATPγS>ADP>ADPβS | biphasic in character | sigmoidal character |  |
| Nc1ncnc2c1ncn2[C@@H]1O[C@H](COP(=O)(O)OP(=O)(O)CP(=O)(O)O)[C@@H](O)[C@H]1O [βγMeATP, β,γ-methylene ATP] | little effect |  |  |  |  | change in ion transport rates [2]: little change in ion transport rates |
| Cc1ccc(N(CC(=O)O)CC(=O)O)c(OCCOc2cc3cc(-c4ncc(C(=O)O)o4)oc3cc2N(CC(=O)O)CC(=O)O)c1 [Fura-2] |  |  |  |  |  | Kd [3]: 0.157 µM |
| CSc1nc(N)c2ncn([C@@H]3O[C@H](COP(=O)(O)OP(=O)(O)OP(=O)(O)O)[C@@H](O)[C@H]3O)c2n1 [2MeSATP, 2-methylthio ATP] | little effect | ATP≥UTP>ATPγS>ADP>2MeSATP>ADPβS | 2MeSATP>UTP≥ATP>ATPγS>ADP>ADPβS |  |  |  |
| Nc1ncnc2c1ncn2[C@@H]1O[C@H](COP(=O)(O)CP(=O)(O)OP(=O)(O)O)[C@@H](O)[C@H]1O [αβMeATP, α,β-methylene ATP] | little effect |  |  |  |  | change in ion transport rates [2]: little change in ion transport rates |
| O=c1ccn([C@@H]2O[C@H](COP(=O)(O)OP(=O)(O)OP(=O)(O)O)[C@@H](O)[C@H]2O)c(=O)[nH]1 [UTP, uridine 5'-triphosphate] | most effective agonists | ATP≥UTP>ATPγS>ADP>2MeSATP>ADPβS | 2MeSATP>UTP≥ATP>ATPγS>ADP>ADPβS | biphasic in character | sigmoidal character | Isc response tracing ([4]; UTP 10^-4 M as printed): Cl^- secretory response; Isc response tracing ([4]; UTP 10^-6 M as printed): Cl^- secretory response; change in Isc over basal levels ([4]; apical surface, amiloride-pretreated CF tissues): routinely stimulated increases in Cl^- secretion; [Ca^2+ ]i response in CF tissues [5]: Increases in [Ca^2+ ]i |
